Where two headings read alike, the source gives them in different places.
Molecular target: PDGFRβ (Rattus norvegicus (Rat), UniProt Q05030)
Experiment: PDGFRβ Cellular Assay (PDGFRb P-Y751 HTRF in A10 cells stimulated with PDGF-BB)
Type: cell-based
In short: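 Rat A10 cells, plated overnight, were treated with compound for 3 hours, then stimulated with PDGF-BB (working stock 100 ng/mL in 10% FBS medium). After lysis, PDGFRβ P-Y751 was detected by HTRF.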

Sequence of PDGFRβ (Q05030 32-1097): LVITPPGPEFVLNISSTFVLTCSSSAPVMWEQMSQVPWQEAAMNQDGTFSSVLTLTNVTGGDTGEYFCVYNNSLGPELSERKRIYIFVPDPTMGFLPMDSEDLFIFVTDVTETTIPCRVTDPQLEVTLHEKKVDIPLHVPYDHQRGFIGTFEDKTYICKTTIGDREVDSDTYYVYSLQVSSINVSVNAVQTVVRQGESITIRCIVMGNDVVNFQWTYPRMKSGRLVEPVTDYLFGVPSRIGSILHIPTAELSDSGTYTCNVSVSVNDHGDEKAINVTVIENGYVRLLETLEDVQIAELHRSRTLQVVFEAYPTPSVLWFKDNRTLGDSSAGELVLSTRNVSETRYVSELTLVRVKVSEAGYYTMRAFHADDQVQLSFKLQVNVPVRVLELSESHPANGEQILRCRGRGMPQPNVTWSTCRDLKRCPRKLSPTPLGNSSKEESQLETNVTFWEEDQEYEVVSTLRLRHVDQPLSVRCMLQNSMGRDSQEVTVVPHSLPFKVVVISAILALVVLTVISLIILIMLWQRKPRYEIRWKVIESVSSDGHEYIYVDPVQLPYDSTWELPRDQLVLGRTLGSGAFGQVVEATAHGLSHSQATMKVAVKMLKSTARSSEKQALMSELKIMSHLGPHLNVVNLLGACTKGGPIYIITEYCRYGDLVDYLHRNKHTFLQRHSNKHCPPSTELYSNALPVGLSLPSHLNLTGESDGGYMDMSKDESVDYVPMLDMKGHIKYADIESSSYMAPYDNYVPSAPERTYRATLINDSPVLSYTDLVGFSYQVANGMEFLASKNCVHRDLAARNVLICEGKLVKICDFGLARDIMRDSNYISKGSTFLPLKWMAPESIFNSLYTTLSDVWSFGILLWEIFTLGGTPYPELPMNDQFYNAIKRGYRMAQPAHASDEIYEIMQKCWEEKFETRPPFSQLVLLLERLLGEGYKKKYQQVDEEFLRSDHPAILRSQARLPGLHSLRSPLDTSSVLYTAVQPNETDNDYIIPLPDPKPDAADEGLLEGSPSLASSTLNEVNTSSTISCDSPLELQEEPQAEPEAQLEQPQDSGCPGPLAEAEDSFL

SMILES	IC50 (read-out: PDGFR Cellular IC50)	IC50 (PDGFR Cellular IC50)
Cc1ncc(NC(=O)CN2CCc3cccnc3C2)cc1NC(=O)c1cnn2cc(-c3cnn(C)c3)sc12 [Example 60, N-(5-(2-(5,6-dihydro-1,7-naphthyridin-7 (8H)-yl)acetamido)-2-methylpyridin-3-yl)-2-(1-methyl-1H-pyrazol-4-yl)pyrazolo[5,1-b]thiazole-7-carboxamide]	50.4 nM	–
COCCn1cc(-c2cn3ncc(C(=O)Nc4cc(NC(=O)C[C@H]5CCN(C(C)C)C5)cnc4C)c3s2)cn1 [Example 486, (R)—N-(5-(2-(1-isopropylpyrrolidin-3-yl)acetamido)-2-methylpyridin-3-yl)-2-(1-(2-methoxyethyl)-1H-pyrazol-4-yl)pyrazolo[5,1-b]thiazole-7-carboxamide]	2000 nM	–
Cc1ncc(NC(=O)CN2C3CCC2COC3)cc1NC(=O)c1cnn2cc(-c3cnn(C)c3)sc12 [Example 44, N-(5-(2-(3-oxa-8-azabicyclo[3.2.1]octan-8-yl)acetamido)-2-methylpyridin-3-yl)-2-(1-methyl-1H-pyrazol-4-yl)pyrazolo[5,1-b]thiazole-7-carboxamide]	23.7 nM	–
Cc1ncc(NC(=O)CN2CCCC23CC3)cc1NC(=O)c1cnn2cc(-c3cnn(CCO)c3)sc12 [Example 87, N-(5-(2-(4-azaspiro[2.4]heptan-4-yl)acetamido)-2-methylpyridin-3-yl)-2-(1-(2-hydroxyethyl)-1H-pyrazol-4-yl)pyrazolo[5,1-b]thiazole-7-carboxamide]	1 nM	–
Cc1ncc(NC(=O)CNC2CCC2)cc1NC(=O)c1cnn2cc(-c3cnn4c3OCCC4)sc12 [Example 494, N-(5-(2-(cyclobutylamino)acetamido)-2-methylpyridin-3-yl)-2-(6,7-dihydro-5H-pyrazolo[5,1-b][1,3]oxazin-3-yl)pyrazolo[5,1-b]thiazole-7-carboxamide]	9.6 nM	–
Cc1ncc(NC(=O)CN2CCOC[C@@H]2C)cc1NC(=O)c1cnn2cc(-c3cnn(C)c3)sc12 [Example 74, (S)-2-(1-methyl-1H-pyrazol-4-yl)-N-(2-methyl-5-(2-(3-methylmorpholino)acetamido)pyridin-3-yl)pyrazolo[5,1-b]thiazole-7-carboxamide]	–	41.6 nM
Cc1ncc(NC(=O)CN2CCCC(F)(F)C2)cc1NC(=O)c1cnn2cc(-c3cnn(C)c3)sc12 [Example 49, N-(5-(2-(3,3-difluoropiperidin-1-yl)acetamido)-2-methylpyridin-3-yl)-2-(1-methyl-1H-pyrazol-4-yl)pyrazolo[5,1-b]thiazole-7-carboxamide]	4.7 nM	–
CC[C@H]1CN(CC(=O)Nc2cnc(C)c(NC(=O)c3cnn4cc(-c5cnn(C)c5)sc34)c2)CCO1 [Example 66, (S)—N-(5-(2-(2-ethylmorpholino)acetamido)-2-methylpyridin-3-yl)-2-(1-methyl-1H-pyrazol-4-yl)pyrazolo[5,1-b]thiazole-7-carboxamide]	4.6 nM	–
Cc1ncc(NC(=O)CN2CCOCC2(C)C)cc1NC(=O)c1cnn2cc(-c3cnn(C)c3)sc12 [Example 68, N-(5-(2-(3,3-dimethylmorpholino)acetamido)-2-methylpyridin-3-yl)-2-(1-methyl-1H-pyrazol-4-yl)pyrazolo[5,1-b]thiazole-7-carboxamide]	19.1 nM	–
Cc1ncc(C(=O)NCCN2CC3CCC2CC3)cc1NC(=O)c1cnn2cc(-c3ccnc(N4CCOCC4)c3)sc12 [Example 484, N-(5-((2-(2-azabicyclo[2.2.2]octan-2-yl)ethyl)carbamoyl)-2-methylpyridin-3-yl)-2-(2-morpholinopyridin-4-yl)pyrazolo[5,1-b]thiazole-7-carboxamide]	44.1 nM	–
Cc1ncc(NC(=O)CN2CCOC(C)(C)C2)cc1NC(=O)c1cnn2cc(-c3cnn(C)c3)sc12 [Example 67, N-(5-(2-(2,2-dimethylmorpholino)acetamido)-2-methylpyridin-3-yl)-2-(1-methyl-1H-pyrazol-4-yl)pyrazolo[5,1-b]thiazole-7-carboxamide]	8.3 nM	–
Cc1ncc(NC(=O)CN2CC3CC(C2)O3)cc1NC(=O)c1cnn2cc(-c3cnn(C)c3)sc12 [Example 45, N-(5-(2-(6-oxa-3-azabicyclo[3.1.1]heptan-3-yl)acetamido)-2-methylpyridin-3-yl)-2-(1-methyl-1H-pyrazol-4-yl)pyrazolo[5,1-b]thiazole-7-carboxamide]	75.4 nM	–
Cc1ncc(NC(=O)CN2CCc3c(cnn3C)C2)cc1NC(=O)c1cnn2cc(-c3cnn(C)c3)sc12 [Example 57, 2-(1-methyl-1H-pyrazol-4-yl)-N-(2-methyl-5-(2-(1-methyl-6,7-dihydro-1H-pyrazolo[4,3-c]pyridin-5 (4H)-yl)acetamido)pyridin-3-yl)pyrazolo[5,1-b]thiazole-7-carboxamide]	124 nM	–
Cc1ncc(NC(=O)CN2CCC3(CC2)COC3)cc1NC(=O)c1cnn2cc(-c3cnn(C)c3)sc12 [Example 46, N-(5-(2-(2-oxa-7-azaspiro[3.5]nonan-7-yl)acetamido)-2-methylpyridin-3-yl)-2-(1-methyl-1H-pyrazol-4-yl)pyrazolo[5,1-b]thiazole-7-carboxamide]	85.5 nM	–
Cc1ncc(NC(=O)CN2CCn3ccnc3C2)cc1NC(=O)c1cnn2cc(-c3cnn(C)c3)sc12 [Example 75, N-(5-(2-(5,6-dihydroimidazo[1,2-a]pyrazin-7 (8H)-yl)acetamido)-2-methylpyridin-3-yl)-2-(1-methyl-1H-pyrazol-4-yl)pyrazolo[5,1-b]thiazole-7-carboxamide]	2750 nM	–
